Data from the NIST ThermoML archive (doi:10.1021/je400486p).

Assay: xn = mol fraction of the nth substance listed
Settings: 101.3 kPa, Liquid; for viscosity: Concentric cylinders viscometry; for mass density: Vibrating tube method

CN1CCCC1=O [N-methylpyrrolidone] + CCC(C)O
Settings	mass density [kg/m3]	viscosity [mPa·s]
288.15 K, x2 = 0	1037.3	1.99
288.15 K, x2 = 0.1049	1014.52	1.984
288.15 K, x2 = 0.2001	993.63	1.974
288.15 K, x2 = 0.3009	971.257	1.972
288.15 K, x2 = 0.4019	948.589	2.005
288.15 K, x2 = 0.5003	926.282	2.032
288.15 K, x2 = 0.5995	903.599	2.118
288.15 K, x2 = 0.7004	880.362	2.302
288.15 K, x2 = 0.7985	857.64	2.618
288.15 K, x2 = 0.899	834.259	3.227
293.15 K, x2 = 0	1032.84	1.823
293.15 K, x2 = 0.1049	1010.11	1.815
293.15 K, x2 = 0.2001	989.247	1.801
293.15 K, x2 = 0.3009	966.914	1.798
293.15 K, x2 = 0.4019	944.287	1.817
293.15 K, x2 = 0.5003	922.02	1.839
293.15 K, x2 = 0.5995	899.376	1.905
293.15 K, x2 = 0.7004	876.183	2.048
293.15 K, x2 = 0.7985	853.51	2.29
293.15 K, x2 = 0.899	830.183	2.757
298.15 K, x2 = 0	1028.38	1.679
298.15 K, x2 = 0.1049	1005.69	1.664
298.15 K, x2 = 0.2001	984.854	1.652
298.15 K, x2 = 0.3009	962.556	1.647
298.15 K, x2 = 0.4019	939.97	1.655
298.15 K, x2 = 0.5003	917.742	1.67
298.15 K, x2 = 0.5995	895.133	1.72
298.15 K, x2 = 0.7004	871.975	1.832
298.15 K, x2 = 0.7985	849.341	2.019
298.15 K, x2 = 0.899	826.054	2.368
303.15 K, x2 = 0	1023.92	1.555
303.15 K, x2 = 0.1049	1001.27	1.538
303.15 K, x2 = 0.2001	980.46	1.524
303.15 K, x2 = 0.3009	958.194	1.514
303.15 K, x2 = 0.4019	935.644	1.516
303.15 K, x2 = 0.5003	913.448	1.522
303.15 K, x2 = 0.5995	890.869	1.56
303.15 K, x2 = 0.7004	867.739	1.645
303.15 K, x2 = 0.7985	845.132	1.792
303.15 K, x2 = 0.899	821.864	2.051
308.15 K, x2 = 0	1019.46	1.444
308.15 K, x2 = 0.1049	996.845	1.427
308.15 K, x2 = 0.2001	976.091	1.411
308.15 K, x2 = 0.3009	953.86	1.399
308.15 K, x2 = 0.4019	931.323	1.393
308.15 K, x2 = 0.5003	909.136	1.397
308.15 K, x2 = 0.5995	886.575	1.424
308.15 K, x2 = 0.7004	863.468	1.489
308.15 K, x2 = 0.7985	840.874	1.598
308.15 K, x2 = 0.899	817.592	1.786
313.15 K, x2 = 0	1015	1.346
313.15 K, x2 = 0.1049	992.413	1.327
313.15 K, x2 = 0.2001	971.652	1.311
313.15 K, x2 = 0.3009	949.443	1.297
313.15 K, x2 = 0.4019	926.949	1.285
313.15 K, x2 = 0.5003	904.8	1.285
313.15 K, x2 = 0.5995	882.258	1.303
313.15 K, x2 = 0.7004	859.157	1.351
313.15 K, x2 = 0.7985	836.567	1.431
313.15 K, x2 = 0.899	813.284	1.566
318.15 K, x2 = 0	1010.53	1.259
318.15 K, x2 = 0.1049	987.978	1.239
318.15 K, x2 = 0.2001	967.237	1.221
318.15 K, x2 = 0.3009	945.05	1.206
318.15 K, x2 = 0.4019	922.578	1.19
318.15 K, x2 = 0.5003	900.445	1.186
318.15 K, x2 = 0.5995	877.912	1.197
318.15 K, x2 = 0.7004	854.81	1.23
318.15 K, x2 = 0.7985	832.207	1.286
318.15 K, x2 = 0.899	808.882	1.379
323.15 K, x2 = 0	1006.06	1.182
323.15 K, x2 = 0.1049	983.533	1.161
323.15 K, x2 = 0.2001	962.815	1.141
323.15 K, x2 = 0.3009	940.651	1.124
323.15 K, x2 = 0.4019	918.196	1.104
323.15 K, x2 = 0.5003	896.069	1.098
323.15 K, x2 = 0.5995	873.531	1.103
323.15 K, x2 = 0.7004	850.415	1.124
323.15 K, x2 = 0.7985	827.785	1.162
323.15 K, x2 = 0.899	804.404	1.222
